Several values for one entry are separate records, joined by “and”; a condition that tells them apart may be missing. Equal entries are not always repeated.
The compounds below were run on PDGF-R (assay: PDGF-R Assay (cellular ELISA, U1242 cells)).
Type: cell-based
Parameters: concentration or dose not given beside the values
Description: The cellular/catalytic assays described herein are performed in an ELISA format. The general procedure is as follows: a compound is introduced to cells expressing the test kinase, either naturally or recombinantly, for a selected period of time after which, if the test kinase is a receptor, a ligand known to activate the receptor is added. The cells are lysed and the lysate is transferred to the wells of an ELISA plate previously coated with a specific antibody recognizing the substrate of the enzymatic phosphorylation reaction. Non-substrate components of the cell lysate are washed away and the amount of phosphorylation on the substrate is detected with an antibody specifically recognizing phosphotyrosine compared with control cells that were not contacted with a test compound.
All cell culture media, glutamine, and fetal bovine serum can be purchased from Gibco Life Technologies (Grand Island, N.Y.) unless otherwise specified. All cells are grown in a humid atmosphere of 90-95% air and 5-10% CO2 at 37° C. All cell lines are routinely subcultured twice a week and are negative for mycoplasma as determined by the Mycotect method (Gibco).
For ELISA assays, cells (U1242, obtained from Joseph Schlessinger, NYU) are grown to 80-90% confluency in growth medium (MEM with 10% FBS, NEAA, 1 mM NaPyr and 2 mM GLN) and seeded in 96-well tissue culture plates in 0.5% serum at 25,000 to 30,000 cells per well. After overnight incubation in 0.5% serum-containing medium, cells are changed to serum-free medium and treated with test compound for 2 hr in a 5% CO2, 37° C. incubator. Cells are then stimulated with ligand for 5-10 minute followed by lysis with HNTG (20 mM Hepes, 150 mM NaCl, 10% glycerol, 5 mM EDTA, 5 mM Na3VO4, 0.2% Triton X-100, and 2 mM NaPyr). Cell lysates (0.5 mg/well in PBS) are transferred to ELISA plates previously coated with receptor-specific antibody and which had been blocked with 5% milk in TBST (50 mM Tris-HCl pH 7.2, 150 mM NaCl and 0.1% Triton X-100) at room temperature for 30 min. Lysates are incubated with shaking for 1 hour at room temperature. The plates are washed with TBST four times and then incubated with polyclonal anti-phosphotyrosine antibody at room temperature for 30 minutes. Excess anti-phosphotyrosine antibody is removed by rinsing the plate with TBST four times. Goat anti-rabbit IgG antibody is added to the ELISA plate for 30 min at room temperature followed by rinsing with TBST four more times. ABTS (100 mM citric acid, 250 mM Na2HPO4 and 0.5 mg/mL 2,2′-azino-bis (3-ethylbenzthiazoline-6-sulfonic acid)) plus H2O2 ([…] 30% H2O2 to 10 ml ABTS) is added to the ELISA plates to start color development. Absorbance at 410 nm with a reference wavelength of 630 nm is recorded about 15 to 30 min after ABTS addition.

| Structure (SMILES) | PDGF Kinase % Inhibition (P.119) |
| --- | --- |
| Cc1c(Br)cc(Br)c2c1C(=Cc1ccc(Br)o1)C(=O)N2 [10726/H05] | −38.0% |
| Cc1cn(C)cc1C=C1C(=O)Nc2c(Br)cc(Br)c(C)c21 [10726/H06] | −20.9% |
| Cc1c(Br)cc(Br)c2c1C(=Cc1cc(O)c3c(c1O)CCCC3)C(=O)N2 [10726/H07] | −30.4% |
| Cc1c(Br)cc(Br)c2c1C(=C1C(=O)Nc3ccc(F)cc31)C(=O)N2 [10726/H08] | 15.1% |
| Cc1c(Br)cc(Br)c2c1C(=C1C(=O)Nc3ccccc31)C(=O)N2 [10726/H09] | 15.1% |
| CCc1ccc(C=C2C(=O)Nc3c(Br)cc(Br)c(C)c32)s1 [10726/H10] | 6.9% |
| COc1ccc(C=C2C(=O)Nc3c(Br)cc(Br)c(C)c32)cc1 [10726/H11] | −0.1% |
| CCN(CC)c1ccc(C=C2C(=O)Nc3c(Br)cc(Br)c(C)c32)cc1 [10727/H02] | −33.6% |
| CCc1cc(CC)c(C=C2C(=O)Nc3c(Br)cc(Br)c(C)c32)[nH]1 [10727/H03] | −20.5% |
| Cc1c(Br)cc(Br)c2c1C(=Cc1cc(Cl)cc(Br)c1O)C(=O)N2 [10727/H04] | 13.7% |
| Cc1c(Br)cc(Br)c2c1C(=Cc1ccccc1Sc1ccc(Cl)cc1)C(=O)N2 [10727/H05] | −28.5% |
| Cc1c(Br)cc(Br)c2c1C(=Cc1cc3c(cc1Cl)OCO3)C(=O)N2 [10727/H06] | −40.8% |
| Cc1c(Br)cc(Br)c2c1C(=Cc1coc3ccccc3c1=O)C(=O)N2 [10727/H07] | −37.2% |
| Cc1c(Br)cc(Br)c2c1C(=Cc1cccc(C#N)c1)C(=O)N2 [10727/H08] | −27.0% |
| Cc1c(Br)cc(Br)c2c1C(=Cc1ccc(C#N)cc1)C(=O)N2 [10727/H09] | −11.7% |
| Cc1c(Br)cc(Br)c2c1C(=Cc1cc(O)ccc1O)C(=O)N2 [10727/H10] | 10.1% |
| COc1cccc(C=C2C(=O)Nc3c(Br)cc(Br)c(C)c32)c1OC [10727/H11] | 2.8% |
| COc1ccc(OC)c(C=C2C(=O)Nc3c(Br)cc(Br)c(C)c32)c1 [10728/H02] | −9.3% |
| COc1cccc(OC)c1C=C1C(=O)Nc2c(Br)cc(Br)c(C)c21 [10728/H03] | −10.6% |
| COc1cc(C=C2C(=O)Nc3c(Br)cc(Br)c(C)c32)cc(OC)c1 [10728/H04] | −5.7% |
| COc1cc(N(C)C)ccc1C=C1C(=O)Nc2c(Br)cc(Br)c(C)c21 [10728/H05] | −10.6% and −5.3% |
| Cc1c(Br)cc(Br)c2c1C(=Cc1ccc3c(c1)Cc1ccccc1-3)C(=O)N2 [10728/H06] | −25.7% |

| Structure (SMILES) | PDGF Kinase % Inhibition (P.119) |
| --- | --- |
| Cc1c(Br)cc(Br)c2c1C(=Cc1cccc(C(F)(F)F)c1F)C(=O)N2 [10728/H07] | −1.7% |
| Cc1c(Br)cc(Br)c2c1C(=Cc1c(F)cccc1C(F)(F)F)C(=O)N2 [10728/H09] | −6.2% |
| Cc1c(Br)cc(Br)c2c1C(=Cc1ccccc1OCC(=O)O)C(=O)N2 [10728/H10] | 4.5% |
| COc1cc(C=C2C(=O)Nc3c(Br)cc(Br)c(C)c32)cc2c1OCO2 [10728/H11] | −16.8% |
| COc1ccc2ccccc2c1C=C1C(=O)Nc2c(Br)cc(Br)c(C)c21 [10729/H02] | 2.3% |
| COc1ccc(C=C2C(=O)Nc3c(Br)cc(Br)c(C)c32)c2ccccc12 [10729/H03] | −0.7% |
| CSc1ccc(C=C2C(=O)Nc3c(Br)cc(Br)c(C)c32)cc1 [10729/H04] | −5.6% |
| Cc1ccsc1C=C1C(=O)Nc2c(Br)cc(Br)c(C)c21 [10729/H05] | −27.6% |
| Cc1c(Br)cc(Br)c2c1C(=Cc1cccc(Oc3ccccc3)c1)C(=O)N2 [10729/H06] | −12.1% |
| Cc1c(Br)cc(Br)c2c1C(=Cc1ccccn1)C(=O)N2 [10729/H07] | −43.1% |
| Cc1c(Br)cc(Br)c2c1C(=Cc1cccnc1)C(=O)N2 [10729/H08] | −1.5% |
| Cc1c(Br)cc(Br)c2c1C(=Cc1ccncc1)C(=O)N2 [10729/H09] | 0.1% |
| Cc1c(Br)cc(Br)c2c1C(=Cc1ccc(N3CCCC3)cc1)C(=O)N2 [10729/H10] | −1.5% |
| Cc1c(Br)cc(Br)c2c1C(=CC1C=CCCC1)C(=O)N2 (stereo not shown) [10729/H11] | 5.0% |
| COc1ccc(C=C2C(=O)Nc3c(Br)cc(Br)c(C)c32)c(OC)c1OC [10730/H02] | 1.0% |
| COc1cc(OC)c(OC)cc1C=C1C(=O)Nc2c(Br)cc(Br)c(C)c21 [10730/H03] | −11.7% |
| COc1cc(C=C2C(=O)Nc3c(Br)cc(Br)c(C)c32)cc(OC)c1OC [10730/H04] | −1.2% |
| CC(=O)n1cc(C=C2C(=O)Nc3c(Br)cc(Br)c(C)c32)c2ccccc21 [10730/H05] | 22.1% |
| Cc1c(Br)cc(Br)c2c1C(=Cc1ccc(-c3ccccc3Cl)o1)C(=O)N2 [10730/H07] | 0.6% |
| Cc1c(Br)cc(Br)c2c1C(=Cc1cc3ccccc3nc1Cl)C(=O)N2 [10730/H08] | 6.3% |
| COC1CC(C=C2C(=O)Nc3c(Br)cc(Br)c(C)c32)C(OC)O1 (stereo not shown) [10730/H10] | 23.0% |
| Cc1cc(C=C2C(=O)Nc3c(Br)cc(Br)c(C)c32)oc1C [10730/H11] | 9.4% |

| Structure (SMILES) | PDGF Kinase % Inhibition (P.119) |
| --- | --- |
| CCn1c2ccccc2c2cc(C=C3C(=O)Nc4c(Br)cc(Br)c(C)c43)ccc21 [10731/H02] | −18.7% |
| Cc1cc2occ(C=C3C(=O)Nc4c(Br)cc(Br)c(C)c43)c(=O)c2cc1C [10731/H03] | 1.8% |
| C=C(C)C1CC=C(C=C2C(=O)Nc3c(Br)cc(Br)c(C)c32)CC1 (stereo not shown) [10731/H04] | −15.8% |
| Cc1c(Br)cc(Br)c2c1C(=Cc1coc3ccc(C(C)C)cc3c1=O)C(=O)N2 [10731/H05] | −1.6% |
| Cc1ccc2occ(C=C3C(=O)Nc4c(Br)cc(Br)c(C)c43)c(=O)c2c1 [10731/H06] | −5.4% |
| Cc1c(Br)cc(Br)c2c1C(=Cc1coc3ccc([N+](=O)[O-])cc3c1=O)C(=O)N2 [10731/H07] | 36.5% |
| Cc1c(Br)cc(Br)c2c1C(=Cc1c[nH]c(=O)[nH]c1=O)C(=O)N2 [10731/H08] | −10.1% |
| COc1ccc2[nH]cc(C=C3C(=O)Nc4c(Br)cc(Br)c(C)c43)c2c1 [10731/H09] | −5.4% |
| Cc1c(Br)cc(Br)c2c1C(=C1C(=O)N(C)c3ccccc31)C(=O)N2 [10731/H10] | 40.3% |
| Cc1c(Br)cc(Br)c2c1C(=CC(c1cccs1)C(F)(F)F)C(=O)N2 (stereo not shown) [10732/H02] | 6.8% |
| COc1c(C(C)C)cc(C=C2C(=O)Nc3c(Br)cc(Br)c(C)c32)cc1C(C)C [10732/H03] | −1.8% |
| Cc1c(Br)cc(Br)c2c1C(=Cc1cc(C(C)C)c(Oc3ccccc3)c(C(C)C)c1)C(=O)N2 [10732/H04] | 14.4% |
| COc1ccc(C=C2C(=O)Nc3c(Br)cc(Br)c(C)c32)cc1C(C)(C)C [10732/H05] | −25.6% |
| Cc1c(Br)cc(Br)c2c1C(=Cc1ccc(OCc3ccccc3)c(C(C)(C)C)c1)C(=O)N2 [10732/H06] | −18.0% |
| COc1c(Br)cc(C=C2C(=O)Nc3c(Br)cc(Br)c(C)c32)cc1C(C)(C)C [10732/H07] | −22.0% |
| Cc1c(Br)cc(Br)c2c1C(=Cc1cc(Br)c(OCc3ccccc3)c(C(C)(C)C)c1)C(=O)N2 [10732/H08] | 7.8% |
| COc1c(Cl)cc(C=C2C(=O)Nc3c(Br)cc(Br)c(C)c32)cc1C(C)(C)C [10732/H09] | −14.4% |
| Cc1c(Br)cc(Br)c2c1C(=Cc1cc(Cl)c(OCc3ccccc3)c(C(C)(C)C)c1)C(=O)N2 [10732/H10] | −21.0% |
| COc1c(I)cc(C=C2C(=O)Nc3c(Br)cc(Br)c(C)c32)cc1C(C)(C)C [10732/H11] | −16.0% |
| Cc1c(Br)cc(Br)c2c1C(=Cc1cc(I)c(OCc3ccccc3)c(C(C)(C)C)c1)C(=O)N2 [10733/H02] | −5.6% |

Source: patent US20020026053A1, “Novel 3-(substituted) -2- indolinones compounds and use thereof as inhibitors of protein kinase activity” (priority 1997, published 2002)
